From PMC9133232 (Cell chemical biology, 2022) come the findings set out here.

One data set has as its target HSV1 Pr (Human herpesvirus 1, UniProt P10210). Nature of the data set: Fluorogenic substrate inhibition assay, HSV1 Pr. In kind it is biochemical.
For a further data set, the system named is EBV Pr. Nature of the data set: Fluorogenic substrate inhibition assay, EBV Pr. It is filed as biochemical, Epstein-Barr virus. As to conditions: read-out: IC50 EBV Pr; one hour incubation.
The target of data set [1] is T1, HCMV C-A (Human cytomegalovirus, UniProt P16753, A143V/A209V/C138A/C202A/C84A/C87A). Nature of the data set: biochemical.
The target in data set [2] is T1, HCMV C-A. As to conditions: for t1/2 HCMV C-A: 0.693 divided by kinact.
The next data set has as its target T2, WT HCMV Pr (Human cytomegalovirus, UniProt P16753, A143V/A209V).
T2 sequence (P16753 1-256 A143V/A209V): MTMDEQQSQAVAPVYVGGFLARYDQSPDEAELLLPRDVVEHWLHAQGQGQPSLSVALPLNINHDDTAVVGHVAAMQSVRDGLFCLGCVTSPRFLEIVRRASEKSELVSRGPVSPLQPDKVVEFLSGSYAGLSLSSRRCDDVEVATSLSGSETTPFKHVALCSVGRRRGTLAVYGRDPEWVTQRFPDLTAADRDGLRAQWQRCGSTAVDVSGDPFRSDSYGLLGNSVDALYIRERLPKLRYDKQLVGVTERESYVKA
Description: biochemical. In kind it is biochemical.

For data set [3], the target named is HCMV C-A (HCMV Pr C84A, C87A, C138A, C202A) (Human cytomegalovirus, UniProt P16753, A143V/A209V/C138A/C202A/C84A/C87A). Description: biochemical.
For data set [4], the target named is T3, HCMV C-A (C161) (Human cytomegalovirus, UniProt P16753, A143V/A209V/C138A/C202A/C84A/C87A). It is filed as binding. As to conditions: 5 μM protein in Tris, 50 μM compound, overnight.
Data set [5] has as its system HFF-1 cells. Nature of the data set: Cell death three days post-reinfection. It is filed as cell-based, human.
The target in data set [6] is T1, HCMV C-A. Description: In-gel fluorescence competition assay in HFF-1 cell lysate. In kind it is binding.
For data set [7], the target named is T1, HCMV C-A. Nature of the data set: Time-course inhibitor labeling by intact protein LC/MS, HCMV C-A. It is filed as binding. As to conditions: time course in the absence of DTT.
Data set [8] deals with T4, HCMV C-A S225M (Human cytomegalovirus, UniProt P16753, A143V/A209V/C138A/C202A/C84A/C87A/S225M). Nature of the data set: Time-course inhibitor labeling by intact protein LC/MS, HCMV C-A S225M dimer. In kind it is binding. As to conditions: time course in the absence of DTT.
Data set [9] has as its target T4, HCMV C-A S225M. Description: KI and kinact determination, HCMV C-A S225M. It is filed as biochemical.
The subject of data set [10] is HFF-1 cells. Description: Cytotoxicity determined in parallel to antiviral EC50. As to conditions: over the course of the antiviral assay.
In data set [11] the target is T3, HCMV C-A (C161). It is filed as binding. As to conditions: intact protein LC/MS.
Data set [12] has as its target Human Cytomegalovirus Protease C84A, C87A, C138A, C202A, S225M (human cytomegalovirus) (UniProt P16753). Nature of the data set: SEC.
Data set [13] addresses T1, HCMV C-A. Description: In-gel fluorescence direct detection assay in HFF-1 cell lysate. In kind it is binding. As to conditions: read-out: EC50 reactivity with HCMV C-A (direct in-gel fluorescence); HFF-1 cell lysates.

Where two headings read alike, the source gives them in different places. Bounds are passed on as bounds.

By IC50 is commonly meant the concentration that gives 50% inhibition. Broadly, the Ki is the equilibrium dissociation constant of an inhibitor or competing ligand from its target. For the molecule `O=C(CCl)Cn1nnc(-c2ccccc2)c1COC(=O)N1CCOCC1` [Compound 45, (1-(3-Chloro-2-oxopropyl)-4-phenyl-1H-1,2,3-triazol-5-yl)methyl morpholine-4-carboxylate], the IC50 against HSV1 Pr is 670 µM; with EBV Pr it was 4 µM; on WT HCMV Pr, 53 µM; in data set [3] it was 66 µM. Besides, affinity at HCMV C-A [1] was put at a Ki of 26 µM. The “kinact HCMV C-A” value at HCMV C-A [2] amounted to 0.020 min⁻¹. Also, the “kinact/KI HCMV C-A” value on HCMV C-A [2] stood at 12.8 M⁻¹ s⁻¹. Besides, the “t1/2 HCMV C-A” value on HCMV C-A [2] was determined as 35 min.

On to `CN(C)C(=O)OCc1c(-c2ccccc2)nnn1CC(=O)CCl` [Compound 42, (1-(3-Chloro-2-oxopropyl)-4-phenyl-1H-1,2,3-triazol-5-yl)methyl dimethylcarbamate], for which the IC50 against HSV1 Pr is over 1000 µM; at WT HCMV Pr it was 33 µM; in [3], 101 µM.

A word on the EC50: it is the concentration that produces a half-maximal response. Regarding `O=C(CCl)Cn1nnc(-c2ccccc2)c1COC(=O)NCc1ccccc1` [Compound 43, (1-(3-Chloro-2-oxopropyl)-4-phenyl-1H-1,2,3-triazol-5-yl)methyl benzylcarbamate], the “labeling of HCMV C-A at C161” value on HCMV C-A (C161) [4] was determined as 100%. Further, the “cell death three days post-reinfection” value in the data set with HFF-1 cells [5] is “minimal”. The IC50 on HSV1 Pr is over 1000 µM; in the data set with EBV Pr it was 2 µM; at WT HCMV Pr it was 4 µM; in data set [3], 33 µM. The molecule also registered an EC50 at HCMV C-A [6] of 3 µM. The inhibition constant Ki at HCMV C-A [1] was 9 µM. For the same molecule, the “final protein labeling HCMV C-A” value on HCMV C-A [7] is recorded as 100%. Moreover, the “final protein labeling HCMV C-A S225M” value on HCMV C-A S225M [8] came out at 100%. Besides, the “kinact HCMV C-A” value on HCMV C-A [2] worked out at 0.024 min⁻¹. In addition, the “kinact/KI HCMV C-A” value on HCMV C-A [2] came to 45 M⁻¹ s⁻¹. Also, the “t1/2 HCMV C-A” value at HCMV C-A [2] came out at 29 min. The “kinact HCMV C-A S225M” value on HCMV C-A S225M [9] turned out to be 0.011 min⁻¹. Also, the “CC50 in parallel to antiviral EC50” value in the data set with HFF-1 cells [10] amounted to 11 μΜ.

As to `O=C(CCl)Cn1cc(-c2ccccc2)nn1` [Compound 31, 1-Chloro-3-(4-phenyl-1H-1,2,3-triazol-1-yl)propan-2-one], the “reactivity with C161 (labeling of HCMV C-A)” value on HCMV C-A (C161) [11] is “showed reactivity with C161”. This molecule also registered a Ki on HCMV C-A [1] of 38 µM. Further, at HCMV C-A [2], the “kinact HCMV C-A” value was 0.026 min⁻¹, the “kinact/KI HCMV C-A” value was 11.3 M⁻¹ s⁻¹ and the “t1/2 HCMV C-A” value was 26 min. Inhibition against WT HCMV Pr was half-maximal at 33 µM (IC50). In addition, in [3], inhibition was half-maximal at 25 µM (IC50).

Regarding `COCCNC(=O)OCc1c(-c2ccccc2)nnn1CC(=O)CCl` [Compound 44, (1-(3-Chloro-2-oxopropyl)-4-phenyl-1H-1,2,3-triazol-5-yl)methyl (2-methoxyethyl)carbamate], the IC50 at HSV1 Pr stood at 840 µM; with EBV Pr it was 12 µM; on WT HCMV Pr it was 13 µM; in data set [3], 54 µM. On HCMV C-A [1], this molecule came in with a Ki of 29 µM. In addition, the “kinact HCMV C-A” value on HCMV C-A [2] came to 0.022 min⁻¹. Also, the “kinact/KI HCMV C-A” value on HCMV C-A [2] is 12.7 M⁻¹ s⁻¹. In addition, the “t1/2 HCMV C-A” value on HCMV C-A [2] is reported as 31 min.

Usually stoichiometry N stands for the number of molecules, sites or subunits per partner or assembly. With “Human Cytomegalovirus Protease C84A, C87A, C138A, C202A, S225M (from UniProt P16753 1-256) (enzyme)”, the stoichiometry N in data set [12] was 2.

`O=C(CCl)Cn1cc(-c2cccc(Cl)c2)nn1` [Compound 38, 1-Chloro-3-(4-(3-chlorophenyl)-1H-1,2,3-triazol-1-yl)propan-2-one]: the IC50 on HSV1 Pr amounted to 145 µM; in the data set on EBV Pr it was 8 µM; on WT HCMV Pr it was 6 µM; in data set [3], 30 µM.

Turning to `N#Cc1ccc(-c2cn(CC(=O)CCl)nn2)cc1` [Compound 35, 4-(1-(3-Chloro-2-oxopropyl)-1H-1,2,3-triazol-4-yl)benzonitrile], the IC50 is 207 µM against HSV1 Pr, 21 µM in the data set with EBV Pr, 11 µM on WT HCMV Pr and 33 µM in [3].

On to `CNC(=O)OCc1c(-c2ccccc2)nnn1CC(=O)CCl` [Compound 41, (1-(3-Chloro-2-oxopropyl)-4-phenyl-1H-1,2,3-triazol-5-yl)methyl methylcarbamate], for which the IC50 against HSV1 Pr was over 1000 µM; in the data set on EBV Pr, 7 µM; against WT HCMV Pr, 68 µM; in [3] it was 60 µM.

Regarding `O=C(CCl)Cn1cc(-c2ccc(Br)cc2)nn1` [Compound 36, 1-(4-(4-Bromophenyl)-1H-1,2,3-triazol-1-yl)-3-chloropropan-2-one], the IC50 against HSV1 Pr is 35 µM; with EBV Pr, 17 µM; against WT HCMV Pr it was 5 µM; in data set [3] it was 25 µM.

As to `CC(=O)Nc1cccc(-c2cn(CC(=O)CCl)nn2)c1` [Compound 39, N-(3-(1-(3-Chloro-2-oxopropyl)-1H-1,2,3-triazol-4-yl)phenyl)acetamide], the concentration for half-maximal inhibition (IC50) against HSV1 Pr was determined as 188 µM; with EBV Pr it was 52 µM; on WT HCMV Pr, 18 µM; in [3], 46 µM.

On HCMV C-A [1], `O=C(CCl)Cn1nnc(-c2ccccc2)c1COC(=O)NCCCN1CCCC1=O` [Compound 47, (1-(3-Chloro-2-oxopropyl)-4-phenyl-1H-1,2,3-triazol-5-yl)methyl (3-(2-oxopyrrolidin-1-yl)propyl)carbamate] showed a Ki of 21 µM. Moreover, at HCMV C-A [2], the “kinact HCMV C-A” value worked out at 0.016 min⁻¹, the “kinact/KI HCMV C-A” value was 12.7 M⁻¹ s⁻¹ and the “t1/2 HCMV C-A” value is listed as 44 min. The IC50 in data set [3] was determined as 135 µM.

`O=C(CCl)Cn1nnc(-c2ccccc2)c1COC(=O)NCCN1CCOCC1` [Compound 46, (1-(3-Chloro-2-oxopropyl)-4-phenyl-1H-1,2,3-triazol-5-yl)methyl (2-morpholinoethyl)carbamate] registered an IC50 in [3] of 182 µM.

`C#CCNC(=O)OCc1c(-c2ccccc2)nnn1CC(=O)CCl` [Compound 48]: on HCMV C-A [13], the EC50 was determined as 4 µM. Further, at WT HCMV Pr (read-out: IC50 WT HCMV Pr, one hour incubation), the IC50 came out at 8 µM.

In the case of `O=C(CCl)Cn1cc(-c2ccc(Cl)cc2)nn1` [Compound 37, 1-Chloro-3-(4-(4-chlorophenyl)-1H-1,2,3-triazol-1-yl)propan-2-one], the IC50 on HSV1 Pr was 98 µM; with EBV Pr it was 11 µM; against WT HCMV Pr, 5 µM; in data set [3] it was 32 µM.

Turning to `O=C(CCl)Cn1cc(-c2ccc([N+](=O)[O-])cc2)nn1` [Compound 34, 1-Chloro-3-(4-(4-nitrophenyl)-1H-1,2,3-triazol-1-yl)propan-2-one], the figures for the IC50 (against HSV1 Pr; against WT HCMV Pr; in data set [3]) were 51 µM, 6 µM and 22 µM, respectively.
